Data: patent US10242162B2 (LG Chem, Ltd., priority 2014, dated 2019)

Experiment: Solubility measurement in water (Test Example)
Type: physicochemical
Settings: 25° C., 1 atm, 24 hr
Method: In order to evaluate the validity of the method of determining the water insolubility according to the present invention in the Example and Comparative Example, the following testing was performed.

CCC(C)O (centres unmarked) [2-butanol]
amount dissolved in 100 g of water: 30 g

c1ccc2ccccc2c1 [Bicyclo[4.4.0]deca-1,3,5,7,9-pentene]
water solubility (in words) (100 g of water): approximated zero
